Measured values from ChEMBL document CHEMBL1201862, “PubChem BioAssay data set” (2004).
The source made the active and inactive calls. Rule as the data show it, for most assays here: actives have a measured IC50 and inactives only a lower limit.

How the values were obtained:
[1] = molecular target: Alkaline phosphatase, placental type (Homo sapiens, UniProt P05187); assay: human placental alkaline phosphatase inhibition – biochemical, luminescence, confirmation (AID 1512); type: functional
[2] = molecular target: T1, Alkaline phosphatase, tissue-nonspecific isozyme (Homo sapiens, UniProt P05186); assay: potency against alkaline phosphatase TNAP – biochemical, luminescent, dose response, SAR follow-up (AID 1056)
T1 sequence (P05186 whole entry): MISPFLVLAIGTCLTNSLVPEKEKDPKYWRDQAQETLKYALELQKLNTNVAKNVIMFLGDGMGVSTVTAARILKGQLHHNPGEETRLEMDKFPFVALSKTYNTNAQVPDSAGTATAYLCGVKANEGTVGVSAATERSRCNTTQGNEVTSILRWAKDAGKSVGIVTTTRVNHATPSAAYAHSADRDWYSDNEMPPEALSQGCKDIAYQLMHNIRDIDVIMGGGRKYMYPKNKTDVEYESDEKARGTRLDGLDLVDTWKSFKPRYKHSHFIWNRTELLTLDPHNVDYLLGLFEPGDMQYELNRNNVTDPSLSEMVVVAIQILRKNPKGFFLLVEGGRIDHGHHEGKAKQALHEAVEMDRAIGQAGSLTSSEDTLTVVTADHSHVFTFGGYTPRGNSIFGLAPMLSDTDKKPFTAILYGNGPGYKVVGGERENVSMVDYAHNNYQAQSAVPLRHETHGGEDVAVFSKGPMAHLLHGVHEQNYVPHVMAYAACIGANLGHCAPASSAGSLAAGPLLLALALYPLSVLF

[3] = tested on: HEK293; assay: inhibition of NOD1-driven NF-kB reporter – cell-based, luminescence, uHTS, primary screen (AID 1578); type: functional; details: Homo sapiens
[4] = tested on: HEK293; assay: cells; type: functional, cell-based; details: Homo sapiens
[5] = tested on: HEK293; assay: cells; type: functional, cell-based; details: Homo sapiens; remark: listed apart in the source
[6] = molecular target: Nucleotide-binding oligomerization domain-containing protein 2 (Homo sapiens, UniProt Q9HC29); assay: inhibition of NOD2-driven NF-kB reporter – cell-based, luminescence, uHTS, HEK293 (AID 1566); type: functional
Chain of Nucleotide-binding oligomerization domain-containing protein 2 (Q9HC29 whole entry, the tested form may be a part): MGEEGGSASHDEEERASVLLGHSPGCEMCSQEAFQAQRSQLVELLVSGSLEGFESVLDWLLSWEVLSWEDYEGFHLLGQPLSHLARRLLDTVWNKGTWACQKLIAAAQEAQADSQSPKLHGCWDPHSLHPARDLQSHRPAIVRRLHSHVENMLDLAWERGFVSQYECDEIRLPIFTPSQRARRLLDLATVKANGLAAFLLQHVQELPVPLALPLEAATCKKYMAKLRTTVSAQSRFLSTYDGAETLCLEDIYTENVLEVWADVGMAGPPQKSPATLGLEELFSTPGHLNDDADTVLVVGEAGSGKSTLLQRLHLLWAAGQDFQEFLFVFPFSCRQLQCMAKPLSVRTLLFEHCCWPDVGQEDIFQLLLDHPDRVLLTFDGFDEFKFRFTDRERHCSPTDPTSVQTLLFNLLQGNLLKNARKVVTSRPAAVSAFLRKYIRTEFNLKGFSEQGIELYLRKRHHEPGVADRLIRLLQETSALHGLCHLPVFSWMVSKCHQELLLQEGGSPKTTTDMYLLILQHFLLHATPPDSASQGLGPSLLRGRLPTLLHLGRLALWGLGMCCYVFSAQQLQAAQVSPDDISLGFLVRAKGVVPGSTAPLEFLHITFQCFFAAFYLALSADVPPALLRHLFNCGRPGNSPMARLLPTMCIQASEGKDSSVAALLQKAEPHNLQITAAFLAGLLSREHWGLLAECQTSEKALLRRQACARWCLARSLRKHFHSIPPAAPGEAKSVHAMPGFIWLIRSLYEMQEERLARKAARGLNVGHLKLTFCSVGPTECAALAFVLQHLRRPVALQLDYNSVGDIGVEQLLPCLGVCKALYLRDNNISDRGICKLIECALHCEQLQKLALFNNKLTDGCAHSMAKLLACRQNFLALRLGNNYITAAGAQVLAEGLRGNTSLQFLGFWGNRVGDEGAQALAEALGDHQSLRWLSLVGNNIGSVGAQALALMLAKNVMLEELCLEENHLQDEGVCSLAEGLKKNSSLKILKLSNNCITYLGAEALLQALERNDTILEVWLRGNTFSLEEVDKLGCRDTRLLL

[7] = tested on: HEK293; assay: NOD2 signaling inhibitors in MDP-stimulated cells, cell-based, uHTS, luminescence (AID 2001); type: functional; details: Homo sapiens
[8] = tested on: HEK293; assay: cells; type: functional, cell-based; details: Homo sapiens; remark: listed apart in the source
[9] = molecular target: Tumor necrosis factor (Homo sapiens, UniProt P01375); assay: analog potency on TNFa NF-kB signaling – cell-based, revised, SAR follow-up (AID 2337); type: functional
Chain of Tumor necrosis factor (P01375 whole entry, the tested form may be a part): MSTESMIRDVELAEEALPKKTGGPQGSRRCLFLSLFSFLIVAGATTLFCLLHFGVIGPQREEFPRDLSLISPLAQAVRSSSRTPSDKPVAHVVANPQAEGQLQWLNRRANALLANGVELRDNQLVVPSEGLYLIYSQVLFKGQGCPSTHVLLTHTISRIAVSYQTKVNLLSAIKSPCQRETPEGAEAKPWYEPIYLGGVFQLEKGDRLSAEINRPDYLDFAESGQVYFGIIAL

[10] = molecular target: T2, Nucleotide-binding oligomerization domain-containing protein 1 (Homo sapiens, UniProt Q9Y239); assay: blockers of NOD1 pathway activity – revised, SAR follow-up (AID 2333); type: functional
T2 sequence (Q9Y239 whole entry): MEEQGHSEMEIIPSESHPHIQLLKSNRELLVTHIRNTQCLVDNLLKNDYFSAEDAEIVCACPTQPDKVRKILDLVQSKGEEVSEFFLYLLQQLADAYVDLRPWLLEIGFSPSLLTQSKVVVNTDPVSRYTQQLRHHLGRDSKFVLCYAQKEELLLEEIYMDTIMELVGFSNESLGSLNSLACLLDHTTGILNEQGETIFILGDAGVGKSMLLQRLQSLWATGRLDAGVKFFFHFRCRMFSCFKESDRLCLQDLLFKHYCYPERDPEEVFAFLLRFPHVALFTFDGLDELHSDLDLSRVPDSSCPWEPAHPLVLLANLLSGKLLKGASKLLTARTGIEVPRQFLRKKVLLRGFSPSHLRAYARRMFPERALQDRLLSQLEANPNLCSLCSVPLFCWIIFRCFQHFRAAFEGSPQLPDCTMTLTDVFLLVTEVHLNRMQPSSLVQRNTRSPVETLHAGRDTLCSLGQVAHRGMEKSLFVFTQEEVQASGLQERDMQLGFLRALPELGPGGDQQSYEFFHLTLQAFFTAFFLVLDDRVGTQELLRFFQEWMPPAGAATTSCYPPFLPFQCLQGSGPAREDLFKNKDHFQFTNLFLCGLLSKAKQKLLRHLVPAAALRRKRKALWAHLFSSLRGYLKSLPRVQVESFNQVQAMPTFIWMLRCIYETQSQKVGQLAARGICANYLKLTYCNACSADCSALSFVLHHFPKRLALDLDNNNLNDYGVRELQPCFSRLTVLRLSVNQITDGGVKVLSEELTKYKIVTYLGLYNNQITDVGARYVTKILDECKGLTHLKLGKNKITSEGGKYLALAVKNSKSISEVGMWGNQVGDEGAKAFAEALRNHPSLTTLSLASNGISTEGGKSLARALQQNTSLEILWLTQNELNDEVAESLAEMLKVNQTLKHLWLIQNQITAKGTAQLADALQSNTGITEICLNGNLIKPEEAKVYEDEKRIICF

[11] = tested on: HEK293; assay: cells; details: Homo sapiens
[12] = tested on: T-cell; assay: loss of vesicle association with mouse CD8+ T cells – mouse 2C CD8+ T cells, flow cytometry, dose response (AID 485284); type: functional

Chain of Alkaline phosphatase, placental type (P05187 whole entry): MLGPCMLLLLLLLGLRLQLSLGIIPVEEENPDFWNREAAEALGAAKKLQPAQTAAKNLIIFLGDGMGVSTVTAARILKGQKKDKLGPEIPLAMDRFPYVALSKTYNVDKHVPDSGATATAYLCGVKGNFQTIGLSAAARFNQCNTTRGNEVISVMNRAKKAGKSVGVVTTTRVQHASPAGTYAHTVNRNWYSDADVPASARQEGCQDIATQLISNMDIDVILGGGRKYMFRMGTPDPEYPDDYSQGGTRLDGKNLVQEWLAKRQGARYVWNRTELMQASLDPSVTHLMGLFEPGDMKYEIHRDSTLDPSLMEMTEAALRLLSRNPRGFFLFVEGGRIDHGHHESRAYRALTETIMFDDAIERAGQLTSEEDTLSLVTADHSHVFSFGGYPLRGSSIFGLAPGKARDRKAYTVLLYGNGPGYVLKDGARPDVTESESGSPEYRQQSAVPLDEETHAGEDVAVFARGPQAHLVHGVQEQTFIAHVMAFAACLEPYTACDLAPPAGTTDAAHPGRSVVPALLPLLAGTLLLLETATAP

CCOC(=O)NC1(C(Cl)(Cl)Cl)Oc2ccc(Cl)cc2O1 (configuration not stated)
IC50 [1]: 55.5 µM (active) | IC50 [2]: > 100 µM (inactive)

COc1ccc(N2CCN(C(=O)c3ccc(CNS(=O)(=O)c4ccc(C)cc4)cc3)CC2)cc1
EC50 [3]: 7.09 µM (active) | IC50 [4]: 10.1 µM (active) | IC50 [5]: 17.5 µM (active) | EC50 [6]: > 20 µM (inactive) | IC50 [7]: 12.5 µM (inactive) | IC50 [8]: > 20 µM (inactive) | IC50 [9]: > 20 µM (inactive) | IC50 [10]: > 20 µM (inactive) | IC50 [11]: > 20 µM (inactive)

CN(C)C=O.O=C(COC(=O)C12CC3CC(CC(Br)(C3)C1)C2)Nc1cccc(S(=O)(=O)N2CCOCC2)c1
EC50 [12]: 4.6 µM (active)
